# Molecular target: T1, binding between ALS-related mutant SOD1 (Flag-SOD1 G93A) and Derlin-1 (Derlin-1-HA) (Homo sapiens, UniProt P00441+Q9BUN8, G94A)
# T1 construct: expressed in transfected cells; host or cells: HEK293A
# Assay: Cell-based co-immunoprecipitation assay of mutant SOD1 (G93A)-Derlin-1 binding
# Set-up: key to Activity value (score): a compound exhibiting no inhibitory activity is set at 0; a compound exhibiting inhibitory activity is set at 1; a compound exhibiting significant inhibitory activity is set at 2; a compound having higher inhibitory activity than the compound of Example 1 is set at 3
# Details: 0.625 μM, 1.25 μM, 2.5 μM and 5 μM added to HEK293A cell culture; FIG. 1
# Experimental: As cells, human embryonic kidney-derived, Human Embryonic Kidney 293A (HEK293A) cells were used. The cells were cultured in High Glucose Dulbecco's modified Eagle's medium (DMEM: 4.5 mg/ml glucose, Sigma) supplemented with complement-inactivated 10% fetal bovine serum (FBS, Vitromex) and 100 units/mL Penicillin G (Meiji), which was placed in an incubator set at conditions of 37° C. and 5% CO2.
# Transfection into the HEK293A cells was carried out using PEI-Max (Polyscience) at a ratio of 3 μL of PEI-Max to 1 μg of plasmid. DMEM was mixed with PEI-Max, and the mixture was then left at rest for 5 minutes. Thereafter, the reaction mixture was added to the plasmid DNA dissolved in DMEM, and the thus obtained mixture was further left at rest for 15 minutes. After seeding, the culture was carried out for 12 to 24 hours, and the resultant was then added to a culture medium of cells, in which the medium had been exchanged with DMEM supplemented only with 10% FBS.
# pcDNA3.0-Derlin-1-HA, pcDNA3.0-Flag-SOD1 G93A, and 123 types of other mutants.
# In the lysis of HEK293A cells for use in a co-immunoprecipitation experiment, an IP lysis buffer (20 mM Tris-HCl (pH 7.5), 150 mM NaCl, 10 mM EDTA (pH 8.0), 1% Triton-X 100, 5 μg/mL leupeptin, and 1 mM phenylmethylsulfonyl fluoride) was used.
# After the transfection on a 24-well plate, the cells were cultured for 12 hours or 24 hours, and the obtained cell culture was exchanged with 200 μL of medium. Thereafter, 1% DMSO or various types of compounds having each different concentration were added into the culture. Thirty-six hours or twenty-four hours later, the cells were incubated in the IP lysis buffer (300 μL/well) at 4° C. for 25 minutes, so that the cells were lysed. The cell lysate was centrifuged at 4° C. at 15000 rpm for 10 minutes, and a supernatant was then recovered. To this supernatant, Anti-Flag M2 affinity gel was added in a liquid amount of 20 μL, and they were allowed to react with each other by subjecting the obtained mixture to inversion mixing at 4° C. for 25 minutes. After completion of the reaction, a supernatant was removed, and the residue was washed twice with High salt wash buffer (1% Triton X 100, 500 mM NaCl, 20 mM Tris-HCl (pH 7.5), and 5 mM EGTA), and was then washed once with Low salt wash buffer (150 mM NaCl, 20 mM Tris-HCl (pH 7.5), and 5 mM EGTA). Finally, 50 μL of a 2×SDS sample buffer was added to the resultant, and the obtained mixture was then boiled at 98° C. for 3 minutes to obtain an SDS-PAGE sample. Regarding the lysate, a 2×SDS sample buffer was added in an amount equal to the supernatant, and the obtained mixture was then boiled at 98° C. for 3 minutes to obtain an SDS-PAGE sample.
# After completion of SDS-PAGE, a protein was transferred from the gel into a polyvinylidene difluoride membrane (PVDF) ([…], Pall), and was then blocked with TBS-T (150 mM NaCl, 50 mM Tris-HCl (pH 8.0), and 0.05% Tween 20) supplemented with 5% skimmed milk at room temperature for 2 hours or more. Thereafter, a primary antibody diluted with TBS-T supplemented with 5% bovine serum albumin and 0.1% NaN3 was allowed to bind to each molecule on the PVDF membrane at 4° C. for 12 hours or more. After completion of the reaction, a secondary antibody (HRP-linked 2nd antibody) diluted with TBS-T supplemented with 5% skimmed milk was allowed to bind to the primary antibody at room temperature for 1 hour. Thereafter, the resultant was washed with TBS-T for 15 minutes, 3 or more times, and detection was then carried out using an enhanced chemiluminescence (ECL) system.
# With regard to the compounds of the present invention (Example Compound 1 to Example Compound 47), whether or not the present compound can inhibit the binding between ALS-related mutant SOD1 and Derlin-1 in a cell by being added into a cell culture solution was examined according to a co-immunoprecipitation experiment. […]
# T1 sequence (P00441 whole entry G94A, species assumed): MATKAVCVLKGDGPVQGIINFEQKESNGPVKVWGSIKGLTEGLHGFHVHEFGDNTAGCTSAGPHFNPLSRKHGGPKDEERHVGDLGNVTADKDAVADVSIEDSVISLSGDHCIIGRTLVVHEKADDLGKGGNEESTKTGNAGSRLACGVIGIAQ
# T1 sequence (Q9BUN8 whole entry, species assumed, stated change not applied): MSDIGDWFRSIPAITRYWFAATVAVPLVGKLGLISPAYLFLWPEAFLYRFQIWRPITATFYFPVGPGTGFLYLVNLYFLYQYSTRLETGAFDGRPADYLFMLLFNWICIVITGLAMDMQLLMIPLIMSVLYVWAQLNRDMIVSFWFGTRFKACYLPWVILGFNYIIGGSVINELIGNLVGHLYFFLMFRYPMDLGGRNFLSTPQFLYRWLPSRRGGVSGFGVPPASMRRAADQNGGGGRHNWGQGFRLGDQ
row,Compound,"binding between mutant SOD1 and Derlin-1 (co-precipitated Derlin-1, IB:HA band)"
1,"Nc1c(C(=O)Nc2ccncc2)sc2nc(-c3cccnc3)ccc12 [Example 4, 3-amino-N-(4-pyridinyl)-6-(3-pyridinyl)thieno[2,3-b]pyridine-2-carboxamide]",the binding between mutant SOD1 and Derlin-1 was inhibited

# Same assay, conditions: assay concentration 2.6 μM; HEK293A cells overexpressing Flag-SOD1 G93A and Derlin-1-HA
row,Compound,Activity value (score)
1,"Nc1c(C(=O)Nc2ccncc2)sc2nc(-c3ccccn3)ccc12 [Example 6, 3-amino-N-(4-pyridinyl)-6-(2-pyridinyl)thieno[2,3-b]pyridine-2-carboxamide]",1

# Same assay, conditions: assay concentration 5 μM; HEK293A cells overexpressing Flag-SOD1 G93A and Derlin-1-HA
row,Compound,Activity value (score)
1,"CC#CCN(C(=O)c1sc2nc(-c3cccnc3)ccc2c1N)c1ccccc1 [Example 9, 3-amino-N-(2-butynyl)-N-phenyl-6-(3-pyridinyl)thieno[2,3-b]pyridine-2-carboxamide]",1
2,"Nc1c(C(=O)Nc2ccncc2)sc2nc(-c3cccnc3)ccc12 [Example 4, 3-amino-N-(4-pyridinyl)-6-(3-pyridinyl)thieno[2,3-b]pyridine-2-carboxamide]",2

# Same assay, conditions: assay concentration 20 μM; HEK293A cells overexpressing Flag-SOD1 G93A and Derlin-1-HA
row,Compound,Activity value (score)
1,"C=CCN(C(=O)c1sc2nc(-c3cccnc3)ccc2c1N)c1cc(F)ccc1C [Example 18, N-allyl-3-amino-N-(5-fluoro-2-methylphenyl)-6-(3-pyridinyl)thieno[2,3-b]pyridine-2-carboxamide]",2
2,"C=CCN(C(=O)c1sc2nc(-c3cccnc3)ccc2c1N)c1cc(F)cc(F)c1 [Example 20, N-allyl-3-amino-N-(3,5-difluorophenyl)-6-(3-pyridinyl)thieno[2,3-b]pyridine-2-carboxamide]",2
3,"C#CCCCOCC=CCN(C(=O)c1sc2nc(-c3cccnc3)ccc2c1N)c1ccccc1 (stereo in doubt) [Example 38, 3-amino-N-((E)-4-(pent-4-ynyloxy)but-2-enyl)-N-phenyl-6-(3-pyridinyl)thieno[2,3-b]pyridine-2-carboxamide]",2
4,"CC(C)=CCN(C(=O)c1sc2nc(-c3ccncc3)ccc2c1N)c1ccc(C(C)(C)C)cc1 [Example 43, 3-amino-N-(4-tert-butylphenyl)-N-(3-methylbut-2-en-1-yl)-6-(4-pyridinyl)thieno[2,3-b]pyridine-2-carboxamide]",1
5,C#CCOC/C=C\CN(C(=O)c1sc2nc(-c3cccnc3)ccc2c1N)c1ccccc1 [Example 36],1
6,CC1(C)CCN(C(=O)c2sc3nc(-c4ccncc4)ccc3c2N)c2ccccc21 [Example 44],1
7,"C=CCN(C(=O)c1sc2nc(-c3ccncc3)ccc2c1N)c1cc(F)cc(F)c1 [Example 22, N-allyl-3-amino-N-(3,5-difluorophenyl)-6-(4-pyridinyl)thieno[2,3-b]pyridine-2-carboxamide]",2
8,"Nc1c(C(=O)N2CCCc3ccccc32)sc2nc(-c3cccnc3)ccc12 [Example 3, (3-Amino-6-(3-pyridinyl)thieno[2,3-b]2-pyridinyl)(3,4-dihydro-1(2H)-quinolyl)methanone]",2
9,"Nc1c(C(=O)Nc2ccc(OCc3ccccc3)cc2)sc2nc(-c3cccnc3)ccc12 [Example 26, 3-amino-N-[4-(benzyloxy)phenyl]-6-(3-pyridinyl)thieno[2,3-b]pyridine-2-carboxamide]",1
10,"C#CCN(C(=O)c1sc2nc(-c3cccnc3)ccc2c1N)c1ccccc1 [Example 2, N-propargyl-3-amino-N-phenyl-6-(3-pyridinyl)thieno[2,3-b]pyridine-2-carboxamide]",2
11,"Nc1c(C(=O)Nc2ccc(I)cc2)sc2nc(-c3cccnc3)ccc12 [Example 27, 3-amino-N-(4-iodophenyl)-6-(3-pyridinyl)thieno[2,3-b]pyridine-2-carboxamide]",1
12,Nc1c(C(=O)Nc2cccc3ccccc23)sc2nc(-c3cccnc3)ccc12 [Example 24],1
13,"Nc1c(C(=O)Nc2cccc(C(F)(F)F)c2)sc2nc(-c3ccncc3)ccc12 [Example 31, 3-amino-6-(4-pyridinyl)-N-(3-(trifluoromethyl)phenyl)thieno[2,3-b]pyridine-2-carboxamide]",1
14,"C=C(C)CN(C(=O)c1sc2nc(-c3cccnc3)ccc2c1N)c1ccc(F)cc1 [Example 34, 3-amino-N-(4-fluorophenyl)-N-(2-methylprop-2-en-1-yl)-6-(3-pyridinyl)thieno[2,3-b]pyridine-2-carboxamide]",1
15,"C=CCN(C(=O)c1sc2nc(-c3cccnc3)ccc2c1N)c1cccc(F)c1F [Example 16, N-allyl-3-amino-N-(2,3-difluorophenyl)-6-(3-pyridinyl)thieno[2,3-b]pyridine-2-carboxamide]",2
